In the PolyMetriX glass transition set:
± gives the standard deviation of the reports.

Point of comparison: `*CCCCCCCCc1nc2cc(NC(=O)CCCCCCCCC(=O)Nc3ccc4oc(*)nc4c3)ccc2o1` (repeat unit), glass transition temperature 93.00 °C. Against it:
- *CCCCCCOC(=O)Nc1ccc(NC(=O)OCCCCCCOc2ccc(-c3ccc(O*)cc3)cc2)c(C)c1 (repeat unit) — lower, 89.00 °C
- *C(F)(F)C1(F)C(F)(F)C(*)(F)C1(F)F (repeat unit) — higher, 122.00 °C
- *CC(*)(CC(=O)OCCCC1CCCCC1)C(=O)OCCCC1CCCCC1 (repeat unit) — lower, 7.00 °C
- *Oc1ccc(Oc2ccc(C(=O)Nc3ccc(Oc4ccc(S(=O)(=O)c5ccc(Oc6ccc(NC(=O)c7ccc(*)cc7)cc6)cc5)cc4)cc3)cc2)cc1-c1ccccc1 (repeat unit) — higher, 231.00 °C
- *c1ccc2c(c1)C(=O)N(c1ccc(OCCOc3ccc(N4C(=O)c5ccc(C(*)(C(F)(F)F)C(F)(F)F)cc5C4=O)cc3)cc1)C2=O (repeat unit) — higher, 254.00 °C
- *c1cccc(P(=O)(c2ccc(C(F)(F)F)cc2)c2cccc(-n3c(=O)c4c(-c5ccccc5)c5c(=O)n(*)c(=O)c5c(-c5ccccc5)c4c3=O)c2)c1 (repeat unit) — higher, 337.00 °C
- *Oc1ccc(Cc2ccc(OC(=O)c3ccc(C(C)(C)c4ccc(C(*)=O)cc4)cc3)cc2)cc1 (repeat unit) — higher, 140.00 °C
- *C(=O)c1ccc2c(c1)C(=O)N(c1cccc(C(=O)c3cccc(N4C(=O)c5ccc(*)cc5C4=O)c3)c1)C2=O (repeat unit) — higher, 242.00 °C
- *CCCCCCCCCCCCNC(=O)CCCCCCCCCCCCCCCCCCC(=O)N* (repeat unit) — higher, 221.60 °C
- */C(=C/c1cc(OCCCCCCCC)c(/C=C(\c2ccccc2)c2ccc3c(c2)Sc2ccc(*)cc2S3)cc1OCCCCCCCC)c1ccccc1 (repeat unit) — the same, 93.00 °C
- *CC(*)C(=O)OC(F)(F)C(F)(F)C(F)(F)C(F)(F)C(F)(F)C(F)(F)C(F)(F)C(F)(F)F (repeat unit) — lower, 9.00 °C
- *Nc1ccc(NC(=O)c2ccc(NC(=O)CCCCCCCCCCCCC(=O)Nc3ccc(C(*)=O)cc3)cc2)cc1C(=O)OCCCCCCCCCCCCCC (repeat unit) — higher, 204.50 °C
- *Oc1ccc(NC(=O)c2cc(C(=O)Nc3ccc(Oc4ccc(C(c5ccc(*)cc5)(C(F)(F)F)C(F)(F)F)cc4)cc3)cc([N+](=O)[O-])c2)cc1 (repeat unit) — higher, 232.00 °C
- *c1ccc2oc(-c3cccc(-c4nc5cc(C(*)(c6ccccc6)C(F)(F)F)ccc5o4)c3)nc2c1 (repeat unit) — higher, 301.00 °C
- *c1ccc2c(c1)C(=O)N(c1cccc(C(c3ccccc3)(c3cccc(N4C(=O)c5ccc(C(*)(C(F)(F)F)C(F)(F)F)cc5C4=O)c3)C(F)(F)F)c1)C2=O (repeat unit) — higher, 305.00 °C
- *c1ccc(Oc2ccccc2Oc2ccc(N3C(=O)c4ccc(Oc5ccc6c(c5)C(=O)N(*)C6=O)cc4C3=O)cc2C(F)(F)F)c(C(F)(F)F)c1 (repeat unit) — higher, 223.00 °C
- *CC(*)(C)C(=O)OCC(=O)c1ccccc1 (repeat unit) — lower, 92.50 °C
- *Nc1cccc(NC(=O)c2cccc(C(=O)Nc3ccc(C(=O)NC(*)=S)cc3)c2)c1 (repeat unit) — higher, 270.00 °C
- *CCN(*)C(=O)CCC (repeat unit) — lower, 42.00 °C
- *CC(*)OC(=O)c1ccncc1 (repeat unit) — higher, 98.50 °C
- *Oc1ccc(C2(c3ccc(OC(*)=O)cc3)CC3CCC2C3)cc1 (repeat unit) — higher, 235.00 °C
- *CCN(*)CC[Si](C)(C)C (repeat unit) — lower, -64.80 °C
- *c1ccc(-c2ccc(-n3c(=O)c4cc5c(=O)n(*)c(=O)c5cc4c3=O)cc2OC(F)(F)F)c(OC(F)(F)F)c1 (repeat unit) — higher, 373.50 ± 15 °C
- *CCCCCCCCCCOC(=O)c1ccc2cc(C(=O)O*)ccc2c1 (repeat unit) — lower, 50.50 °C
- *Oc1c(Cl)cc(C(C)(C)c2cc(Cl)c(OC(=O)c3ccc(OCCCCCCCCCCOc4ccc(C(*)=O)cc4)cc3)c(Cl)c2)cc1Cl (repeat unit) — higher, 140.00 °C
- *CCC[Si](*)(C)CCC[Si](C)(C)C (repeat unit) — lower, -46.00 °C
- *c1ccc(-c2ccc3c(c2)C(CCCCCC)(CCCCCC)c2cc(*)ccc2-3)cc1 (repeat unit) — higher, 106.20 °C
- *CCCP(CCCCCCCC)CCCNC(=O)CCCCC(=O)N* (repeat unit) — lower, 12.00 °C
- *Oc1ccc(CC(NC(=O)Cc2ccc(OC(=O)CCCCCCC(*)=O)cc2)C(=O)OCC)cc1 (repeat unit) — lower, 54.00 °C
- *CCCCOC(=O)OCCCCCCOC(=O)OCCCCn1c(=O)c2cc3c(=O)n(*)c(=O)c3cc2c1=O (repeat unit) — lower, 37.00 °C
- *=NP(=NP(=NC(=*)Oc1ccc(C(=O)OC)cc1)(Oc1ccc(C(=O)OC)cc1)Oc1ccc(C(=O)OC)cc1)(Oc1ccc(C(=O)OC)cc1)Oc1ccc(C(=O)OC)cc1 (repeat unit) — lower, 52.00 °C
- *Nc1ccc(Nc2ccc(C(O)(c3ccccc3)c3ccc(C(O)(c4ccccc4)c4ccc(*)cc4)cc3)cc2)cc1 (repeat unit) — higher, 200.00 °C
- *NC(=O)NCCCCCCNC(=O)Nc1cccc(*)n1 (repeat unit) — higher, 170.00 °C
- *CC(*)C(=O)OCCSCCCC#N (repeat unit) — lower, -58.00 °C
- *c1ccc(-c2sc(-c3ccc(-n4c(=O)c5cc6c(=O)n(*)c(=O)c6cc5c4=O)cc3)c(-c3ccccc3)c2-c2ccccc2)cc1 (repeat unit) — higher, 460.00 °C
- *CC(*)(C)C(=O)OC1(C)CCOC(=O)C1 (repeat unit) — higher, 110.00 °C
- *C(=O)Oc1c(C)cc(C(C)(C)c2cc(C)c(OC(=O)c3ccc4c(c3)C(=O)N(c3ccc(-c5ccc(N6C(=O)c7ccc(*)cc7C6=O)cc5C)c(C)c3)C4=O)c(C)c2)cc1C (repeat unit) — higher, 182.00 °C
- *c1ccc(-c2ccc(Oc3ccc(C4(C)CC(C)(C)c5ccc(Oc6ccc(-c7ccc(-n8c(=O)c9cc%10c(=O)n(*)c(=O)c%10cc9c8=O)cc7)cc6C(F)(F)F)cc54)cc3)c(C(F)(F)F)c2)cc1 (repeat unit) — higher, 265.00 °C
- *Oc1ccc(C(=O)CNc2ccc(S(=O)(=O)c3ccc(NCC(=O)c4ccc(*)cc4)cc3)cc2)cc1 (repeat unit) — higher, 247.00 °C
- *NNC(=O)c1ccc(C(=O)NNC(=O)c2ccc([Si](c3ccccc3)(c3ccccc3)c3ccc(C(*)=O)cc3)cc2)c2ccccc12 (repeat unit) — higher, 270.00 °C
- *CC(O)CN(*)c1cc(C)c(/N=N/c2ccc(C#N)cc2)c(C)c1 (repeat unit) — higher, 150.00 °C
- *Oc1ccc(Cc2ccc(OC(=O)OCC3CCC(COC(*)=O)CC3)cc2)cc1 (repeat unit) — lower, 56.90 °C
- *C(=O)c1ccc(N(*)CCC)cc1 (repeat unit) — higher, 136.00 °C
- *c1ccc2c(c1)C(=O)N(c1ccc(-c3ccc(N4C(=O)c5ccc(C(*)(C(F)(F)F)C(F)(F)F)cc5C4=O)c(C)c3)cc1C)C2=O (repeat unit) — higher, 352.00 °C
- *c1cccc(N2C(=O)c3cccc(Oc4ccc(S(=O)(=O)c5ccc(Oc6cccc7c6C(=O)N(*)C7=O)cc5)cc4)c3C2=O)c1 (repeat unit) — higher, 266.00 °C
- */C=C/c1ccc(/C=C/c2ccc3c(c2)Sc2cc(*)ccc2N3c2ccc(OCCCCCCCCCCCC)cc2)s1 (repeat unit) — higher, 155.00 °C
- *OC1C(COC(C)=O)OC(*)C(OC(C)=O)C1O (repeat unit) — higher, 202.00 °C
- *CCCCCCCCC(*)Cl (repeat unit) — lower, -33.00 °C
- *c1ccc(C(=O)Nc2ccc(-c3cc(Br)ccc3NC(=O)c3ccc(S(*)(=O)=O)cc3)cc2)cc1 (repeat unit) — higher, 288.00 °C
- *C1C(*)C2CC1C(C(=O)OCc1ccccc1)C2C(=O)OCc1ccccc1 (repeat unit) — higher, 277.00 °C
- *O[SiH](*)C (repeat unit) — lower, -3.39 °C
- *Oc1ccc(NC(=O)c2ccc(*)cc2)cc1 (repeat unit) — higher, 225.00 °C
- *c1ccc(C#Cc2cc(OCCCCCCCC)c(C#Cc3ccc(-c4nnc(*)o4)cc3)cc2OCCCCCCCC)cc1 (repeat unit) — higher, 130.00 °C
- *Oc1ccc2ccc(Oc3ccc(C(=O)Nc4ccc(Oc5ccc(S(=O)(=O)c6ccc(Oc7ccc(NC(=O)c8ccc(*)cc8)cc7)cc6)cc5)cc4)cc3)cc2c1 (repeat unit) — higher, 227.00 °C
- *C(=O)Nc1ccc(/N=N/c2ccc([N+](=O)[O-])cc2)c(NC(=O)c2ccc3c(c2)C(=O)N(c2c(C)cc(Cc4cc(C)c(N5C(=O)c6ccc(*)cc6C5=O)c(C)c4)cc2C)C3=O)c1 (repeat unit) — higher, 264.00 °C
- *c1ccc(Oc2cccc(Oc3ccc(N4C(=O)c5ccc(Oc6ccc(C(C)(C)c7ccc(Oc8ccc9c(c8)C(=O)N(*)C9=O)cc7)cc6)cc5C4=O)cc3)c2C#N)cc1 (repeat unit) — higher, 213.00 °C
- *CCCCCCCn1c2ccccc2c2cc(/C=C(\C#N)C(=O)OCCCCCCOC(=O)/C(C#N)=C/c3ccc4c(c3)c3ccccc3n4*)ccc21 (repeat unit) — higher, 107.80 °C
- *CC(*)c1cccc(NC(C)=O)c1 (repeat unit) — higher, 163.00 °C
- *c1cccc(N2C(=O)c3ccc(Oc4c(C)cc(Cc5cc(C)c(Oc6ccc7c(c6)C(=O)N(*)C7=O)c(C)c5)cc4C)cc3C2=O)c1 (repeat unit) — higher, 245.00 °C
- *CCN(CCOC(=O)NCCCCCCNC(=O)O*)c1ccc(/N=N/c2ccc([N+](=O)[O-])cc2)c(C)c1 (repeat unit) — lower, 75.00 °C
- *c1ccc(Oc2ccc(C(=O)c3ccc(C(=O)c4ccc(Oc5ccc(-c6nc(-c7cccc(-c8nc(*)c(-c9ccccc9)[nH]8)c7)[nH]c6-c6ccccc6)cc5)cc4)cc3)cc2)cc1 (repeat unit) — higher, 262.00 °C
- *Oc1ccc(Oc2ccc(C(=O)c3ccc(-c4ccc(C(=O)c5ccc(*)cc5)cc4)cc3)cc2)cc1-c1ccc(S(=O)(=O)O)c(C)c1 (repeat unit) — higher, 182.00 °C
- *Cc1cc(C)c(CNC(=O)CCCCC(=O)N*)cc1C (repeat unit) — lower, 70.00 °C
